The nature of data set [1]: Organ weight and histology (liver, spleen, kidney, lung) of ATH490 mice. On the procedure: All values are presented as mean±S.E.M. Analyses were performed using GraphPad Prism software (GraphPad Software). Comparison between the groups was made by p value determination using one-way ANOVA. A p value of <0.05 was considered to be statistically significant. […] Each organ weight (%) is normalized with total body weight (BW).
The H&E stained slides were taken with a 20× objective using a Zeiss EPI-fluorescent microscope (bright field). […] At least 10 fields for each slide (one slide per mouse, and 3 mice per group) were examined.
Images were taken with a 10× objective using a Zeiss EPI-fluorescent microscope. […] Drug administration was carried out as described in Table IX and in the Materials and Methods section herein with respect to Animal Studies.
The images of the H&E stained renal tissues were taken with a Zeiss EPI-fluorescent (bright field) microscope using a 10× objective.

The target in data set [2] is T1, Caspase-like proteasome activity in HeLa S3 cell lysates (Homo sapiens, UniProt P28072).
T1 construct: proteasomes were extracted in 0.5% NP40 buffer; endogenous in cells; host or cells: HeLa S3
Description: Proteasome activity assay, caspase-like. The format is biochemical. As to conditions: read-out: Inhibition (IC50) Caspase-like. On the procedure: Exponentially growing HeLa S3 cells were plated on 96-well plates. After overnight incubation, the cells were treated with different concentrations of drugs for 6 hours or left untreated (control). At the end of 6 hours, proteasomes were extracted in 0.5% NP40 buffer, and equal amounts of samples were incubated with 25 μM of fluorogenic substrates purchased from Boston Biochem (Cambridge Mass.). (LRR-specific for trypsin-like activity, LLE-specific for caspase-like activity and SUVY-specific for chymotrypsin like activity) in black-bottom 96-well plates at 37° C. Fluorescence was monitored every 5 min at the wavelength of 360 nm (excitation) and 480 nm (emission). Chymotrypsin activity was also determined by a kit-based method (similar to described above) purchased from Caymen Biochem (Ann Arbor, Mich.), using a fluorogenic substrate specific for chymotrypsin activity.
Analysis of proteasome activity in HeLa S3 cell lysates treated with various compounds (FIG. 10). VR-23 inhibits proteasome activity. 20S proteasome activity was inhibited by 1 μM VR-23. MG132 and EGCG, known proteasome inhibitors, were used as positive controls. The PC positive control is cell lysates prepared from Jurkat cells with a high proteasome activity. “Asynchr” denote asynchronous HeLa S3 cells grown in the absence of VR-23.

Data set [3] has as its system HeLa S3 cells. Description: Western blot, immunostaining and immunoprecipitation of cell cycle proteins, HeLa S3 cells. The class given is cell-based. The source says:
All immunocytochemistry experiments were visualized by confocal microscopy using a Zeiss 510 Meta laser scanning microscope (Carl Zeiss) equipped with a 63× objective lens, unless otherwise specified herein. Three lasers were utilized for excitation with the following band pass filter settings used for detection: Argon 488 nm (band pass 505-530), HeNe 543 nm (long pass 560) and 633 nm (long pass 650). All images were captured and analyzed using LSM 510 software included with the microscope (LSM Image Examiner™, Carl Zeiss).
The synchronization at the G1/S border (more accurately at the beginning of S phase) was achieved by double thymidine block (DT). Briefly, exponentially growing cells are treated with 2.0 mM thymidine for 18 hours, followed by incubation for 11 hours in drug-free complete medium, by which time most cells are at mid-late G1 phase. The cells are then incubated for another 14 hours in 2.0 mM thymidine to arrest them at the G1/S border. To arrest cells at the G2/M phase, cells were maintained for 18 hours in complete medium containing nocodazole (50 ng/ml). Both these synchronization are reversible.
Under the experimental conditions, some of the cells were still stuck at G2/M until 8 hour post-drug treatment. “Asynchr” denotes asynchronous cells. 0 hour is the end of nocodazole treatment (i.e., 18 hours in 50 ng/ml nocodazole). At 0 hour, cells were released into complete medium in the absence (control) or presence of 5 μM VR-23 for 2, 4, or 8 hours as indicated. […] Extracts prepared from HeLa S3 cells treated with VR-23 in early-S phase (0 hour post double thymidine treatment), G2/M (arrested by nocodazole), or late G1 (6 hour post nocodazole) were subjected to Western blotting with anti-PARP1 antibody to detect proteins associated with apoptotic activities.
Evaluation of apoptosis in VR-23 treated and untreated control cells (FIG. 8). Treatment of cells in late G1 with VR-23 delayed their progression into S phase. HeLa S3 cells arrested in G2-M phase by nocodazole (50 ng/ml, 18 hours) were incubated in drug-free complete medium for 2, 4 or 6 hours (numbers in brackets), followed by incubation for 2 or 6 hours (+h) in the absence (control) (FIG. 8A) or presence (FIG. 8B) of 10 μM VR-23. […] By (6)+6 hours, most of the control cells already progressed into S phase, but VR-23-treated cells were still in G1 (long and short arrows, respectively). […] Under normal growth conditions, cyclin E expression peaks in late G1 and rapidly levels off as a cell enters S phase, at which time cyclin A expression rapidly increases. […] Thus cells treated with VR-23 were still in G1 phase because cyclin E was not degraded and cyclin A was not induced in a timely manner.
HeLa S3 cells arrested at G1/S by DT were released into cell cycle for 1-3 hours in the absence (control) (FIG. 16A) or presence (FIG. 16B) of VR-23. Cells were then fixed and immunostained with antibodies specific for γ-tubulin and cyclin E, or DNA stained. […] In contrast, cyclin E was localized to the centrosomes by 3 hour post-DT in cells exposed to VR-23 (see inset boxes of FIG. 16B). […] It is noted that proteasomes are localized to the centrosomes^12,13.
HeLa S3 cells synchronized at the G1/S border by DT were released into cell cycle at time 0 hour. Cells were then allowed to progress through S phase for 1 hour (FIG. 17A) or 3 hours (FIG. 17B) in the absence (control) or presence of VR-23. Plk1 was not localized to the centrosome at 1 hour post-DT either in VR-23 treated or untreated control cells. However, unlike in the control, all of the (amplified) centrosomes in cells exposed to VR-23 contained Plk1 by 3 hour post-DT. It was occasionally observed that one of the two centrosomes in untreated cells also contained plk1 at 3 hour post-DT (dotted arrow).
HeLa S3 cells synchronized at G1/S by DT were released into normal growth medium at 0 hour for 1-3 hours in absence (control) (FIG. 18A) or the presence (FIG. 18B) of VR-23. […]
(In general: In western blotting, separated proteins are transferred to a membrane and probed.)

[4] abbreviates: VR-23 30 mg/kg, paclitaxel 20 mg/kg.
Setting [5] is: 10 μM VR-23 after nocodazole release.
Where [6] appears, read: released from DT for 1-3 hours with VR-23.

The IC50 is the concentration at which inhibition is half-maximal. Turning to `O=[N+]([O-])c1ccc(S(=O)(=O)N2CCN(c3ccnc4cc(Cl)ccc34)CC2)c([N+](=O)[O-])c1` [Compound 1, 7-Chloro-4-(4-(2,4-dinitrophenylsulfonyl)piperazin-1-yl)quinoline], in data set [1] (ATH490 mice, VR-23, 30 mg/week, Paclitaxel, 20 mg/week), the “Microscopic Changes (liver)” value was “Largely (>95% of cases) normal”. Besides, the “Effects on vital organs by their weights” value in data set [1] (VR-23 30 mg/kg, 29 days post-treatment) is “did not cause any notable ill effects on vital organs”. Moreover, in data set [1] (setting [4]), the “Mitotic index in the liver” value is reported as “did not cause an increase in mitotic index” and the “Spleen histology (H&E)” value was “did not cause any notable toxicity to the spleen”. The “Kidney histology (H&E), nephrotoxicity” value in data set [1] (VR-23 30 mg/kg, paclitaxel 20 mg/kg, four weeks) is listed as “did not cause any notable toxicity to the kidney”. In data set [2], the concentration for half-maximal inhibition (IC50) amounted to 3 µM. For the same molecule, in data set [3] (10 μM VR-23, 2 hour post-treatment), the “Levels of cyclins B and E” value is recorded as “higher in the VR-23 treated cells than the control”. The “Levels of cyclin E and cyclin A (Western blot)” value in data set [3] (10 μM VR-23, (6)+6 hours) was “a high level of cyclin E and a lack of detectable cyclin A”. Also, in data set [3] (setting [5]), the “Cell cycle arrest (immunoprecipitation)” value was “caused cell cycle arrest prior to mitotic checkpoint”; the “Cell cycle arrest point and Cdk1 status” value is reported as “arrested at prometaphase through the inactivation of Cdk1”. In addition, the “PARP1 cleavage (Western blot)” value in data set [3] (VR-23 in early-S, G2/M or late G1) is given as “showed PARP1 cleavage”. In data set [3] (setting [6]), the “Centrosomal localization of Plk4” value was “disrupted” and the “Cyclin E localization” value is “localized to the centrosome by 3 hour post-DT”. In addition, in data set [3] (released from DT for 1 or 3 hours with VR-23), the Plk1 localization result is “localized to the centrosome by 3 hour post-DT”.

These data come from US9975852B2, “Quinoline sulfonyl derivatives and uses thereof” (Health Sciences North Research Institute, priority 2013, dated 2018).
